Assays:
[1] = molecular target: T1, ABL1 (Homo sapiens, UniProt P00519); experiment: TR-FRET binding assay, ABL1 (BODIPY-dasatinib probe); details: concentration required to inhibit the probe binding to ABL by 50%, read-out: Binding affinity IC50 ABL
T1 construct: the His-tagged ABL1 protein (full length, P3049) were from Life Technologies; purchased Life Technologies P3049
Procedure: The TR-FRET assay was carried out using 384-well white flat-bottom plates (Greiner Bio-One) and the signal was measured using an EnVision Multilabel Plate Reader (PerkinElmer, Waltham, MA, USA).
(§1) The half maximal inhibitory concentration (IC50) of test compounds was calculated by fitting the data with the logistic equation using GraphPad Prism 5 (GraphPad Software, Inc., La Jolla, CA, USA) or XLfit (IDBS, Guildford, UK).
Before addition to the assay plate, 3-fold concentrations of the His-ABL1 protein, Tb-SA and the biotinylated anti-His antibody were mixed in the assay buffer and incubated for over 1 h at room temperature. Several concentrations of test inhibitors dissolved in the assay buffer were dispensed in the assay plate. […] The plate was incubated for 30 min at room temperature and the TR-FRET signal was measured using the EnVision Multilabel Plate Reader.

[2] = test system: KU812 cells; experiment: WST cell growth inhibition, KU812; assay type: cell-based; details: Homo sapiens, 48 h, WST assay, means ± SD (n = 3)
Procedure: Human CML (K562 and KU812 cells), acute T-lymphoblast leukemia (MOLT-4 cell), and T cell leukemia (Jurkat cell) were cultured in Roswell Park Memorial Institute-1640 medium (Sigma-Aldrich, St. Louis, MO, USA) containing 10% fetal bovine serum (Thermo Fisher Scientific, Waltham, MA, USA) and 50 μg/ml kanamycin (Sigma-Aldrich). KU812 cells were obtained from Japanese Collection of Research Bioresources (JCRB, Osaka, Japan) Cell Bank (JCRB0104)[58].
Cell viability was determined using water-soluble tetrazolium WST-8 (4-[3-(2-methoxy-4-nitrophenyl)-2-(4-nitrophenyl)-2H-5-tetrazolio]-1,3-benzene disulfonate) for the spectrophotometric assay and conducted according to the manufacturer’s instructions (Dojindo, Tokyo, Japan). Cells were seeded at a concentration of 5 × 10^3 cells per well in a 96-well culture plate, and treated with the indicated compounds for 48 h. The WST-8 reagent was added, and the cells were incubated for 0.5 h at 37 °C in a humidified atmosphere of 5% CO2. The absorbance at 450 nm of the medium was measured using the EnVision Multilabel Plate Reader.

[3] = molecular target: T2, cIAP2 (BIR3) (Homo sapiens, UniProt Q13489); experiment: TR-FRET IAP/Smac peptide interaction assay, cIAP2; details: FITC-Smac probe, read-out: Binding affinity IC50 cIAP2
T2 construct: cIAP2 (BIR3, Gln238-Ser349) proteins were expressed in E. coli; made in house; host or cells: E. coli
Procedure: (§2) The TR-FRET assay was carried out using 384-well white flat-bottom plates (Greiner Bio-One) and the signal was measured using an EnVision Multilabel Plate Reader (PerkinElmer, Waltham, MA, USA). The solution in each well was excited with a laser (λ = 337 nm) reflected by a dichroic mirror (D400/D505 (Perkin Elmer) and fluorescence from terbium (Tb) and BODIPY or FITC was detected through two emission filters (CFP 486 (Perkin Elmer) for Tb and Emission 515 (Perkin Elmer) for BODIPY and FITC). The assay buffer used in this study was composed of 50 mM HEPES (pH 7.2–7.5), 10 mM MgCl2, 1 mM EGTA, 0.1 mM DTT and 0.01% (v/v) Brij^(R) 35. All assays were carried out at room temperature in triplicate or quadruplicate formats.
as §1
(§3) His-IAP proteins (XIAP, cIAP1 or cIAP2), FITC-Smac, Tb-SA and the biotinylated anti-His antibody (Life Technologies) were mixed in the assay buffer and incubated for over 1 h at room temperature before addition to the assay plate. […] After 1 h incubation at room temperature, the TR-FRET signal was measured using the EnVision Multilabel Plate Reader. […]

[4] = test system: MOLT-4 cells; experiment: WST cell growth inhibition, MOLT-4 (BCR-ABL negative); assay type: cell-based; details: Homo sapiens, MOLT4 cells, 48 h, WST assay, means ± SD (n = 3)
[5] = test system: phosphorylation of BCR-ABL, STAT5 and CrkL; experiment: Downstream kinase signaling (phosphorylation) by western blot in K562 cells; assay type: cell-based, Human
Procedure: Cells were collected and lysed in a lysis buffer (0.5% Triton X-100, 0.01 M Tris-HCl (pH 7.5), 0.15 M NaCl, Complete Mini protease inhibitor cocktail (Roche Applied Science, Indianapolis, IL, USA) and PhosStop phosphatase inhibitor cocktail (Roche Applied Science)). Protein concentrations were measured by the BCA method (Thermo Fisher Scientific) and an equal amount of protein lysate was separated by SDS-PAGE, transferred to polyvinylidene difluoride membranes (Merck Millipore) and analyzed by western blot using an appropriate antibody. The immunoreactive proteins were visualized using Clarity Western ECL substrate (Bio-Rad, Hercules, CA, USA) and their light emission was quantified with a LAS-3000 lumino-image analyzer (Fuji, Tokyo, Japan). The following antibodies were used: anti-cAbl rabbit polyclonal antibody (pAb) (#2862), anti-XIAP rabbit pAb (#2042), anti-phospho-cAbl rabbit pAb (#3009), anti-STAT5 rabbit pAb (#9363), anti-phospho-STAT5 rabbit pAb (#9359), anti-CrkL mouse monoclonal antibody (mAb) (#3182) and anti-phospho-CrkL rabbit pAb (#3181), anti-PARP rabbit pAb (#9532), and anti-cleaved Caspase 3 rabbit pAb (#9664) (Cell Signaling Technology, Danvers, MA, USA); anti-β-tubulin (ab6046) rabbit pAb (Abcam, Cambridge, UK) and anti-GAPDH rabbit pAb (sc-25778 HRP) (Santa Cruz, Dallas, TX, USA); anti-cIAP1 goat pAb (AF8181) (R&D systems).
Cells were seeded at a concentration of 2 × 10^6 cells per 10-cm tissue culture dish and treated with the indicated compounds for the indicated times. Then, the cells were washed three times to remove the compounds, and incubated in drug-free medium for the indicated times.

[6] = molecular target: T3, XIAP (BIR3) (Homo sapiens, UniProt P98170); experiment: TR-FRET IAP/Smac peptide interaction assay, XIAP; details: FITC-Smac probe, read-out: Binding affinity IC50 XIAP
T3 construct: human XIAP (BIR3, Asn252-Thr356, 895-XB-050); purchased R&D Systems 895-XB-050
Procedure: as §2, §1, §3

[7] = K562, 50 times IC50 for 12 h (time 0)

T3 sequence (P98170 252-356): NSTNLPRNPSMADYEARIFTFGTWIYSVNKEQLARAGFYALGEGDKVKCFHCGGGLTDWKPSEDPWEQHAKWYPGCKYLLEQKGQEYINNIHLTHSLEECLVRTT
T1 sequence (P00519 whole entry): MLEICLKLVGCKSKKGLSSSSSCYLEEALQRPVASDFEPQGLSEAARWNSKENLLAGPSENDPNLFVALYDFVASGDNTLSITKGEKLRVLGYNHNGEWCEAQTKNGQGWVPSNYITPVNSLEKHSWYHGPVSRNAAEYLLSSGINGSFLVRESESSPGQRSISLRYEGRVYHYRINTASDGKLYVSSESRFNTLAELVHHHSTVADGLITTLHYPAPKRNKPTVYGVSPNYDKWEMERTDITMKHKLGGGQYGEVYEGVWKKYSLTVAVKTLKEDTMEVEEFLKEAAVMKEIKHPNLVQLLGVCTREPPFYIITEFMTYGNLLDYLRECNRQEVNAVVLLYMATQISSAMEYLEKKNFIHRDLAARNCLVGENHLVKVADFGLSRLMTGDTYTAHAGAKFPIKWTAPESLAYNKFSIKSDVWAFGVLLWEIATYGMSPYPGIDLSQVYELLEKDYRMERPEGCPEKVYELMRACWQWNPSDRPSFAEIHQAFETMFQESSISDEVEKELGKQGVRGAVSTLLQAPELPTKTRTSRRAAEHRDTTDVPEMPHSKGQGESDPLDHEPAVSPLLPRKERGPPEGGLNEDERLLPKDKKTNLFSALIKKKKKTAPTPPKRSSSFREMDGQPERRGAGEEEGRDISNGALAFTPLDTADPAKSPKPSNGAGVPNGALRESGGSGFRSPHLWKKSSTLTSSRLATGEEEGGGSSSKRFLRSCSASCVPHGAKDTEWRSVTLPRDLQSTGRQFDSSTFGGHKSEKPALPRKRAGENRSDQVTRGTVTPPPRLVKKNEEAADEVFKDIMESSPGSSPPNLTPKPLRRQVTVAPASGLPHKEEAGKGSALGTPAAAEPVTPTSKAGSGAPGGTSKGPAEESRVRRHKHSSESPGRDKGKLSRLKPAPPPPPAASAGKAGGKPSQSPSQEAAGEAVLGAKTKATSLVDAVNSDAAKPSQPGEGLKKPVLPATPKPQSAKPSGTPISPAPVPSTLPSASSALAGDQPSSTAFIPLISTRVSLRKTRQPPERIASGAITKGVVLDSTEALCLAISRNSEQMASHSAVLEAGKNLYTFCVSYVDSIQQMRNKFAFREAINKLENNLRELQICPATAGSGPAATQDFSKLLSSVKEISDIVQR
T2 sequence (Q13489 238-349): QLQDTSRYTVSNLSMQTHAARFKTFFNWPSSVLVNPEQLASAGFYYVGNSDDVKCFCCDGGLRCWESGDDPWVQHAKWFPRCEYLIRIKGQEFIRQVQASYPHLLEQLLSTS

| IC50 [1] | IC50 [3] | IC50 [4] | IC50 [6] | SMILES | IC50 [2] | phosphorylation of BCR-ABL, STAT5 and CrkL [5, 7] | phosphorylated BCR-ABL, STAT5 and CrkL after drug removal ([5]; K562, 50 times IC50 for 12 h, 48 and 72 h after drug removal) | phosphorylation of BCR-ABL, STAT5 and CrkL ([5]; K562 cells, 6 h) |
| --- | --- | --- | --- | --- | --- | --- | --- | --- |
| 0.00054 µM | 0.012 µM | 1.72 ± 0.0649 µM | 0.05 µM | CN[C@@H](C)C(=O)N[C@H](C(=O)N1CCC[C@H]1c1nc(C(=O)c2cccc(OCCOCCOCCOCC(=O)N3CCN(c4cc(Nc5ncc(C(=O)Nc6c(C)cccc6Cl)s5)nc(C)n4)CC3)c2)cs1)C1CCCCC1 [DAS-IAP] | 0.00897 ± 0.00099 µM | inhibited | remained significantly diminished | suppressed |
| < 0.00024 µM | > 1 µM | 1.9 ± 0.108 µM | > 1 µM | CN[C@@H](C)C(=O)N(C)[C@H](C(=O)N1CCC[C@H]1c1nc(C(=O)c2cccc(OCCOCCOCCOCC(=O)N3CCN(c4cc(Nc5ncc(C(=O)Nc6c(C)cccc6Cl)s5)nc(C)n4)CC3)c2)cs1)C1CCCCC1 [DAS-meIAP] | 0.00357 ± 0.00022 µM | inhibited | – | suppressed |
